Data taken from ChEMBL document CHEMBL4610078, “Bioactive Azepine-Indole Alkaloids from Psychotria nemorosa” (J Nat Prod, 2020).
Active and inactive are the calls of the source. The rule behind the calls is not given here.

Columns and labels:
[1] = target: T1, Amine oxidase [flavin-containing] A (Homo sapiens, UniProt P21397)
T1 sequence (P21397 whole entry): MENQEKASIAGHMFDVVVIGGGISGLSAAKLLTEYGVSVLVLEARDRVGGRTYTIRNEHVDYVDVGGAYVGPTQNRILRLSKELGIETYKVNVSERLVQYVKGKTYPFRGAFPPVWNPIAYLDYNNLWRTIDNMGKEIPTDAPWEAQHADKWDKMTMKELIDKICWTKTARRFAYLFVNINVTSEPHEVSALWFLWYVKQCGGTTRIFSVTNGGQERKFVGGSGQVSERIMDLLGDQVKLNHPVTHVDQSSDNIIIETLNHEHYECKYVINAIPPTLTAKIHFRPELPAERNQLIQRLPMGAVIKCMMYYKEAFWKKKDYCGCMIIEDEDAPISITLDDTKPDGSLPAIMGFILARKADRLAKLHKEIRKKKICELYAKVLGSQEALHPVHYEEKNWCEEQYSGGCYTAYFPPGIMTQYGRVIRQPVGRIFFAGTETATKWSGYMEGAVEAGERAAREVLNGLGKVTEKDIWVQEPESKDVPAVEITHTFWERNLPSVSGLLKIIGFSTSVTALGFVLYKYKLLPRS
Description: Inhibition of recombinant human MAO-A incubated for 30 mins by fluorescence-based method

[2] = target: Acetylcholinesterase (Electrophorus electricus) (UniProt O42275); experiment: Inhibition of electric eel AchE using acetylthiocholine as substrate at 10 uM measured for 6 mins by Ellman's method
Acetylcholinesterase (Electrophorus electricus), sequence (O42275 24-633 limits assumed): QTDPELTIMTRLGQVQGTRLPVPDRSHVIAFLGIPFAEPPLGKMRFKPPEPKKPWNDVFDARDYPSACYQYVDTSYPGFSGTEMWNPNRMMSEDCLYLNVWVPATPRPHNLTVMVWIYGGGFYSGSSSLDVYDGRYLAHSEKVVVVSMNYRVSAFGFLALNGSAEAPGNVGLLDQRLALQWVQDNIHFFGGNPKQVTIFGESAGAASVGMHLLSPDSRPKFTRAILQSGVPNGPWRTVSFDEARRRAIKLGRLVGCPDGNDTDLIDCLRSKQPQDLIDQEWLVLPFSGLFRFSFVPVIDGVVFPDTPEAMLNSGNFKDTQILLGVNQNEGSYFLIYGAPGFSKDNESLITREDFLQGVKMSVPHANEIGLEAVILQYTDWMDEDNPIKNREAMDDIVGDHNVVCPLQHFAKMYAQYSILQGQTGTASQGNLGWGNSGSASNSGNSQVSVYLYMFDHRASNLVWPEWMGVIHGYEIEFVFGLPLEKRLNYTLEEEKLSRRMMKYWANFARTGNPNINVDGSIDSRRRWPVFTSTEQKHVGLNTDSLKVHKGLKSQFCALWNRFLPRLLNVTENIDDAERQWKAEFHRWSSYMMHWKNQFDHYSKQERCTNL

[3] = target: Cholinesterase (Equus caballus) (UniProt P81908); experiment: Inhibition of equine serum BChE using (S)-butyrylthiocholine iodide as substrate at 10 uM measured for 6 mins by Ellman's method
Cholinesterase (Equus caballus), sequence (P81908 whole entry): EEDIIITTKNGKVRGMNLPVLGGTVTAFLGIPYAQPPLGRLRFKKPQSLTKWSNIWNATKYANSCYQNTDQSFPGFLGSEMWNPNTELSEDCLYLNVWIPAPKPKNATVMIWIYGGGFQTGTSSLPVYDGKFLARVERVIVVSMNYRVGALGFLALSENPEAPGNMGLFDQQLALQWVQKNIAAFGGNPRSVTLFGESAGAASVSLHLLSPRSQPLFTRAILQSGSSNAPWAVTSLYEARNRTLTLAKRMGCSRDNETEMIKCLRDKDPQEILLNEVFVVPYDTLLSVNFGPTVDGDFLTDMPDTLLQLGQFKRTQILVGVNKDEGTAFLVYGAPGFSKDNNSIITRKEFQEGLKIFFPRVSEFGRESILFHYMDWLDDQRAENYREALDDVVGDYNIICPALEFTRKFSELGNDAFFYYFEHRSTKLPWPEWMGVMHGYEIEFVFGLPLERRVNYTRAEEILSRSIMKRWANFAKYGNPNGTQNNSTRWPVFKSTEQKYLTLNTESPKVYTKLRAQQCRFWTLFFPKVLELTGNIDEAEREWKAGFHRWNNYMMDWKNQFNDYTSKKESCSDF

[4] = target: T2, Amine oxidase [flavin-containing] B (Homo sapiens, UniProt P27338); details: 0.5 h, read-out: INH
T2 sequence (P27338 whole entry): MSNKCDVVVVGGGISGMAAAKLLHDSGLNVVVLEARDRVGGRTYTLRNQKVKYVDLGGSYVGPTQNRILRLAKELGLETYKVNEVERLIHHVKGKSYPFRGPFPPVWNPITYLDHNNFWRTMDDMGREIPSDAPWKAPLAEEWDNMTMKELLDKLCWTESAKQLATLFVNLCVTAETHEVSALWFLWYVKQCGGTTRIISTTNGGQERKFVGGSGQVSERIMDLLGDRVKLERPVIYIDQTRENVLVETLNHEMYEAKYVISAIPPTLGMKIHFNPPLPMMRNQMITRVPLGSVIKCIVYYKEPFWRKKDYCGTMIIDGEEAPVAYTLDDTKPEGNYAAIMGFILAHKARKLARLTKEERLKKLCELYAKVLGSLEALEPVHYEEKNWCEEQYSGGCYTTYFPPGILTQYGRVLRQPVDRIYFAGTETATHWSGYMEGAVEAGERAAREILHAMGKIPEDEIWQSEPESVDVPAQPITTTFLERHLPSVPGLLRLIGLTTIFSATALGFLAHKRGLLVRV
Description: Inhibition of recombinant human MAO-B at 10 uM incubated for 30 mins by fluorescence-based method

SMILES | IC50 [1] [nM] | inhibition [2] | inhibition [3] | inhibition at 10 µM [4] [%]
C=C[C@H]1[C@H](O[C@@H]2O[C@H](COC(=O)/C=C/c3ccc(OC)c(OC)c3)[C@@H](O)[C@H](O)[C@H]2O)OC=C(C(=O)OC)[C@H]1C[C@H]1c2c(O)ccc3[nH]cc(c23)CCN1C | > 10000 | inactive | inactive | 
C[N+]1([O-])CCc2c[nH]c3ccc(O)c(c23)C1 (configuration not stated) | 1400 | inactive | 41% | 27
C=C[C@H]1[C@H](O[C@@H]2O[C@H](CO)[C@@H](O)[C@H](O)[C@H]2O)OC=C(C(=O)OC)[C@H]1C[C@H]1c2c(O)ccc3[nH]cc(c23)CCN1C | > 10000 | inactive | inactive | 
C#CCN(C)Cc1ccccc1 [PARGYLINE] |  |  |  | 0.14
C=C[C@H]1[C@H](O[C@@H]2O[C@H](CO)[C@@H](O)[C@H](O)[C@H]2O)OC=C(C(=O)OC)[C@H]1C[C@@H]1c2c(O)ccc3[nH]cc(c23)CCN1C | > 10000 | inactive | inactive | 
C[N+]1=Cc2c(O)ccc3[nH]cc(c23)CC1 | 900 | inactive | 21% | 31
CN1CCc2c[nH]c3ccc(O)c(c23)C1 | 1400 | inactive | 18% | 22
